Tests used:
[1] = test system: HL-60; test: Antiproliferative activity against human HL60 cells at 62.5 to 156.25 uM at day 4 by MTS/PMS assay; type: functional
[2] = test system: L1210; test: Antiproliferative activity against mouse L1210 cells at day 4 by MTS/PMS assay; type: functional, cell-based; details: L1210, 96 h
[3] = test system: HL-60; test: Antiproliferative activity against human HL60 cells at day 4 by MTS/PMS assay; type: functional, cell-based; details: HL-60, 96 h
[4] = Antiproliferative activity against mouse Pan02 cells at day 4 by MTS/PMS assay; type: functional, cell-based; details: Pan02, 96 h

| SMILES | IC50 [2] | IC50 [3] | inhibition (INH) [1] | IC50 [4] |
| --- | --- | --- | --- | --- |
| COc1ccc([C@H]2/C=C\C[C@H](NS(=O)(=O)c3cccc4cccnc34)CC(=O)N2Cc2ccc(F)cc2)cc1 | 15.4 µM | – | <50% | – |
| COc1ccc(C(=O)N[C@H]2C/C=C\[C@H](c3ccc(OC)cc3)N(Cc3ccc(F)cc3)C(=O)C2)cc1 (relative stereo) | 25.2 µM | 40.1 µM | – | 34.9 µM |
| COc1ccc([C@H]2/C=C\C[C@H](NC(=O)c3ccccc3)CC(=O)N2Cc2ccc(F)cc2)cc1 (relative stereo) | 27.1 µM | 54.7 µM | – | 40.6 µM |
| COc1ccc([C@H]2/C=C\C[C@H](NS(=O)(=O)c3ccc4ccccc4c3)CC(=O)N2Cc2ccc(F)cc2)cc1 (relative stereo) | 8.5 µM | – | <50% | – |

Second part, led by results:

| IC50 [2] | IC50 [3] | SMILES | inhibition (INH) [1] | IC50 [4] |
| --- | --- | --- | --- | --- |
| 37.9 µM | – | CCCCS(=O)(=O)N[C@H]1C/C=C\[C@H](c2ccc(OC)cc2)N(Cc2ccc(F)cc2)C(=O)C1 (relative stereo) | <50% | – |
| 11 µM | – | COc1ccc([C@H]2/C=C\C[C@H](NS(=O)(=O)c3ccc(C)cc3)CC(=O)N2Cc2ccc(F)cc2)cc1 (relative stereo) | <50% | – |
| 40.1 µM | – | COc1ccc([C@H]2/C=C\C[C@H](NC(=O)C3CCCC3)CC(=O)N2Cc2ccc(F)cc2)cc1 (relative stereo) | <50% | – |

Source: ChEMBL document CHEMBL1139430, “Synthesis of a natural product-inspired eight-membered ring lactam library via ring-closing metathesis” (Bioorg Med Chem Lett, 2008)
